# Measured values as given in patent US20050032863A1, “Method of treating or preventing central nervous system disorders with compounds having selectivity for the alpha 3 subunit of the benzodiazepine receptor” (priority 2003, published 2005).
# Legend:
# [1] = system: 5-HT release in the brain; settings: literature reports; cited from earlier work
# [2] = biological target: T1, recombinant rat α2β2γ2 GABAA receptors (Rattus norvegicus, UniProt P23576); assay: Whole-cell patch-clamp, modulation of GABA (EC20)-induced currents in transfected HEK 293 cells, α2β2γ2; type: cell-based
# T1 construct: expressed in transfected cells; host or cells: HEK 293
# T1 sequence (P23576 29-451): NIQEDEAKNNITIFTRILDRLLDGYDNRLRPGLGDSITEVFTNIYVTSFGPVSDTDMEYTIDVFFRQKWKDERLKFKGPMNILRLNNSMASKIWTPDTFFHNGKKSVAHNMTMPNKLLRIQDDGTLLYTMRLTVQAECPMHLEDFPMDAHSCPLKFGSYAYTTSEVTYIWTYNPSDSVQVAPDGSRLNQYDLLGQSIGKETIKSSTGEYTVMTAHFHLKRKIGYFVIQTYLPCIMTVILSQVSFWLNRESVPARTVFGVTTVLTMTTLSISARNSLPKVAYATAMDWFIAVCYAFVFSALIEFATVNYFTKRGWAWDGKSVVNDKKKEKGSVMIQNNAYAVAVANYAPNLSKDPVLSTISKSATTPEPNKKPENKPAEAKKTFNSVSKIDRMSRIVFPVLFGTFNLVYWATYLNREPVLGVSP
# Description: (§1) For electrophysiological recording HEK-293 cells were passaged and replated on 12-mm glass coverslips located in 9.6-cm plastic dishes filled with 10 ml of Minimum Essential Medium (MEM, Gibco) supplemented with 158 mg/l sodium bicarbonate, 2 mM glutamine (Gibco), 100 U/ml penicillin-streptomycin (Gibco), and 10% foetal calf serum (Gibco). Cultures were maintained at 37° C. in a humidified […]/5% CO2 atmosphere for 2-3 days.
# (§2) Transfection with recombinant rat GABAA receptors was carried out as described in detail (Korpi and Lüddens, 1993, Lüddens and Korpi, 1995b). Briefly, HEK 293 cells were transfected in triple combinations using the phosphate precipitation method with rat GABAA receptor cDNAs in eukaryotic expression vectors (Pritchett, 1990) for the α, β and γ subunits. For optimal receptor expression, final concentrations (μg vector DNA per 9.6 cm tissue culture plate) were: α1, 2; α2 4.8; α3, 1.2; α4, 10; α5, 0.8; β2, 0.4; and γ2S, 0.3. The γ2S variant is abbreviated γ2 in the remainder of the text. To identify transfected cells all subunit combinations were co-transfected with 1 μg per plate of pNI-EGFP.
# (§3) Two days after transfection single coverslips containing HEK 293 cells were placed in a recording chamber mounted on the movable stage of a fluorescence microscope (Olympus IX70) and perfused with a defined saline solution containing (in mM): 130 NaCl, 5.4 KCl, 2 CaCl2, 2 MgSO4, 10 glucose, 5 sucrose, and 10 HEPES (free acid), pH adjusted to 7.35 with about 35 mM NaOH. Transfected cells were identified by their green fluorescence due to the expression of the pNI-EGFP vector and ligand-mediated membrane currents of these cells were studied in the whole-cell configuration of the patch-clamp technique (Hamil et al., 1981). Patch-clamp pipettes were pulled from hard borosilicate capillary glass (0.5 mm ID, 1.5 mm OD, Vitrex, Science Products GmbH, Hofheim, Germany) using a horizontal puller (Sutter Instruments, CA, Model P-97) in a multi-stage process.
# (§4) Seal resistances >1 GΩ were routinely obtained by applying gentle suction to the pipettes. Membrane rupture was monitored electrically as an increase in capacity. Pipette capacitance, membrane capacitance, and series resistance were electronically compensated to achieve minimal capacitative transients. A series resistance compensation of >60% was regularly used.
# (§5) In all cells recorded the presence of the γ2 subunit in the heteropentamere was monitored by the application of 1 μM zolpidem plus the EC20 of GABA before testing the experimental drugs.
# (§6) Responses of the cells were recorded by a patch-clamp amplifier (EPC-8, HEKA-Electronic, Lambrecht, Germany) in conjunction with a standard personal computer and the pClamp 8.1 software package (Axon Instruments, Foster City, Calif.). The standard holding-potential for the cells was −40 mV. Whole cell currents were low-pass filtered by an eight-pole Bessel filter at 5 or 3 kHz before being digitised by a Digidata 1322A interface (Axon Instruments, Foster City, Calif.) and recorded by the computer at a sampling rate of at least […].
# (§7) Efficacy, potency, and GABAA receptor a subunit specificity of the new compound ELB139 was tested with the whole cell configuration of the patch-clamp technique by applying increasing drug concentration together with GABA of the approximate EC20 on green fluorescing cells. BZ binding site specificity of the new compound was tested on the same cells in an identical experimental setting with additionally applying 10 μM Ro15-1788.
# [3] = biological target: T2, recombinant rat α1β2γ2 GABAA receptors (Rattus norvegicus, UniProt P62813); assay: Whole-cell patch-clamp, modulation of GABA (EC20)-induced currents in transfected HEK 293 cells, α1β2γ2; type: cell-based
# T2 construct: expressed in transfected cells; host or cells: HEK 293
# T2 sequence (P62813 28-455): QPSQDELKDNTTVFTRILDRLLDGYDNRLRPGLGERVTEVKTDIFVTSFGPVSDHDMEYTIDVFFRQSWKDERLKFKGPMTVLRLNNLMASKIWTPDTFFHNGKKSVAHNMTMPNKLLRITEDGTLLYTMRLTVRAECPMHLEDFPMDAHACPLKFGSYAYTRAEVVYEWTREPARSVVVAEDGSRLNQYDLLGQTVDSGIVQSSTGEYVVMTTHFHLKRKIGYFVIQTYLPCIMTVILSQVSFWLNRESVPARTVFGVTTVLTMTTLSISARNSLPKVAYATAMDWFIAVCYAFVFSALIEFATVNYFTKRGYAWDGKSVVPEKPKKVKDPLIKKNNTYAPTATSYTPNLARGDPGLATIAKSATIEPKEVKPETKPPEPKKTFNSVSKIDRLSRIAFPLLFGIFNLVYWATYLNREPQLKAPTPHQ
# Description: as §1, §2, §3, §4, §5, §6, §7
# [4] = biological target: T3, recombinant rat α3β2γ2 GABAA receptors (Rattus norvegicus, UniProt P20236); assay: Whole-cell patch-clamp, modulation of GABA (EC20)-induced currents in transfected HEK 293 cells, α3β2γ2; type: cell-based
# T3 construct: expressed in transfected cells; host or cells: HEK 293
# T3 sequence (P20236 29-493): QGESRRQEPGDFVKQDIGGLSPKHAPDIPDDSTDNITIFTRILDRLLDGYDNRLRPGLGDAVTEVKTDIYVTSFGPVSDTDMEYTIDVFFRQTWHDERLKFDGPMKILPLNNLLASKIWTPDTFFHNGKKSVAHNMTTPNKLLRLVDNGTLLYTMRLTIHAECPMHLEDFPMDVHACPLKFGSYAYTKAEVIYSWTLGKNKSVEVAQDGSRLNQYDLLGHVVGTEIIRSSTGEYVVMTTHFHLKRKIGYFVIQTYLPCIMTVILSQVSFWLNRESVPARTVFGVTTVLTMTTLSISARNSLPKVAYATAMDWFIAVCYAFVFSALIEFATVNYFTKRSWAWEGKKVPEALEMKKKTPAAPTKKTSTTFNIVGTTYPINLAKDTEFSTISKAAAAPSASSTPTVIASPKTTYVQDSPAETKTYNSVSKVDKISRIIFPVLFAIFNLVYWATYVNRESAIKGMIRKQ
# Description: as §1, §2, §3, §4, §5, §6, §7
# [5] = biological target: T4, recombinant rat α4β2γ2 GABAA receptors (Rattus norvegicus, UniProt P28471); assay: Whole-cell patch-clamp, modulation of GABA (EC20)-induced currents in transfected HEK 293 cells, α4β2γ2; type: cell-based; settings: α4-containing receptors; diazepam up to 1 μM, ELB139 at all concentrations tested
# T4 construct: expressed in transfected cells; host or cells: HEK 293
# T4 sequence (P28471 36-552): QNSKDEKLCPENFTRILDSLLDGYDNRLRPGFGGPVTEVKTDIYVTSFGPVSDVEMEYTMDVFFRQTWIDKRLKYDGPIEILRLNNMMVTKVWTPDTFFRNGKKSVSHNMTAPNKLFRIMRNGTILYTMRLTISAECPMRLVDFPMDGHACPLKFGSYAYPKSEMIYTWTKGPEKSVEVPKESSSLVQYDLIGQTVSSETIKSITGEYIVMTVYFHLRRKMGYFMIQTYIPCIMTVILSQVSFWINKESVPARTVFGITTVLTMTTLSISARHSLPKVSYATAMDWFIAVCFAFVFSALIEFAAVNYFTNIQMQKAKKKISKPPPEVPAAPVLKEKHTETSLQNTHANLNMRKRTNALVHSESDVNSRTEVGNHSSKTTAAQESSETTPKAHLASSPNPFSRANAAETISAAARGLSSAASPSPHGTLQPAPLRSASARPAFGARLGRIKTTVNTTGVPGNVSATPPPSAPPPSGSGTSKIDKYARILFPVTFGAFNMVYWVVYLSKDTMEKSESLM
# Description: as §1, §2
# as §3, with “Patch-clamp pipettes were pulled from hard borosilicate capillary glass (0.5 mm ID, 1.5 mm OD, Vitrex, Science Products GmbH, Hofheim, Germany) using a horizontal puller (Sutter Instruments, CA, Model P-97) in a multi-stage process.” left out
# Seal resistances >1 GΩ were routinely obtained by applying gentle suction to the pipettes. Membrane rupture was monitored electrically as an increase in capacity. […]
# In all cells recorded the presence of the γ2 subunit in the heteropentamere was monitored by the application of 1 μM zolpidem plus the EC20 of GABA before testing the experimental drugs. […]
# [6] = biological target: T5, recombinant rat α5β2γ2 GABAA receptors (Rattus norvegicus, UniProt P19969); assay: Whole-cell patch-clamp, modulation of GABA (EC20)-induced currents in transfected HEK 293 cells, α5β2γ2; type: cell-based
# T5 construct: expressed in transfected cells; host or cells: HEK 293
# T5 sequence (P19969 32-464 limits assumed): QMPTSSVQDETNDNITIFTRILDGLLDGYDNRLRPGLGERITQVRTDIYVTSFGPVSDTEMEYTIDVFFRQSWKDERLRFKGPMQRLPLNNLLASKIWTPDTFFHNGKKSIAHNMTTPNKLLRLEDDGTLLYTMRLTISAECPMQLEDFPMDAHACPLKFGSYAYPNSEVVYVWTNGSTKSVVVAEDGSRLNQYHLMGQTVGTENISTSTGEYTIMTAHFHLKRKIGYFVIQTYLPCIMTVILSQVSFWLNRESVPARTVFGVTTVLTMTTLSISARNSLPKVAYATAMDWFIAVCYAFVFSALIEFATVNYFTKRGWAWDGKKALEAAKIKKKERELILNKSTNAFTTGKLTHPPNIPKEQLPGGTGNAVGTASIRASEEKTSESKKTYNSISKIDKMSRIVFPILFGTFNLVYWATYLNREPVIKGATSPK
# Description: as §1, §2, §3, §4, §5, §6, §7
# [7] = system: female Wistar rats, MK-801-induced stereotypies, hyperactivity and ataxia; assay: MK-801-induced psychosis-related behaviour and reversibility by flumazenil (Example 7); type: in vivo, rat
# Description: Apart from the haloperidol rats which received haloperidol 30 minutes and MK-801 10 minutes prior to the test, the other test groups received haloperidol, ELB139 or vehicle 60 minutes prior to test, saline or flumazenil 20 minutes prior to test and MK-801 10 minutes prior to test.
# (§8) The behaviour induced by the NMDA antagonist MK-801 is generally accepted as a rat model of psychosis. MK-801 induces stereotypies, hyperactivity and ataxia in rats after intraperitoneal administration.
# Locomotor activity of the rats is recorded by the MotiTest Apparatus (TSE, Bad Homburg, Germany). The test area consisted of a squared arena (45×45 cm) with protective plexiglass walls (20 cm of height) where rats could freely move. Horizontal movements were recorded by 32 infrared photocells arranged along the bottom of each wall of the arena. Vertical movements (rearings) were recorded by a horizontal row of 32 infrared photocells 12 cm above the floor. The following parameters were measured by the computer program “ActiMot” (TSE, Bad Homburg, Germany): • 1. active time [s] • 2. total distance travelled [m]
# (§9) Stereotypies, divided into stereotyped sniffing and other stereotypies, and ataxia are scored by the experimenter every five minutes for one hour (12 intervals) according to the method described by Andiné et al. (1999). The scores of the 12 intervals are added for each parameter.
# The day of experiment the female rats are placed in the laboratory and receive the test compound, the reference substance or vehicle at the appropriate time prior to test. […]
# (§10) At the beginning of the test the rats are placed in the centre of the squared arena of the MotiTest apparatus. Behaviour of the rats is recorded for one hour. After each run animals are removed and the boxes thoroughly cleaned and dried.
# [8] = system: female Wistar rats, MK-801-induced stereotypies, hyperactivity and ataxia; assay: MK-801-induced behaviour, rat model of psychosis (Example 1); type: in vivo; settings: 0.5 mg/kg i.p. 1 h prior to test; MK-801 0.2 mg/kg i.p.; p<0.001
# Description: as §8
# Locomotor activity of the rats is recorded by the MotiTest Apparatus (TSE, Bad Homburg, Germany). The test area consisted of a squared arena ([…] with protective plexiglass walls (20 cm of height) where rats could freely move. Horizontal movements were recorded by 32 infrared photocells arranged along the bottom of each wall of the arena. Vertical movements (rearings) were recorded by a horizontal row of 32 infrared photocells 12 cm above the floor. The following parameters are measured by the computer program “ActiMot” (TSE, Bad Homburg, Germany): • active time [s] and total distance travelled [m]
# as §9
# The day of experiment the female rats are placed in the laboratory and receive the test compound, the reference substance or vehicle at the appropriate time prior to test. MK-801 0.2 mg/kg is intraperitoneally administered 10 minutes prior to test.
# as §10
# alpha 3 receptors = alpha 3 receptors (UniProt P18508+P34903); settings: cited from earlier work
# alpha 2 receptors = alpha 2 receptors (UniProt P18508+P47869); settings: cited from earlier work
# Sequence of alpha 2 receptors (P47869 29-451): as the sequence (P23576 29-451) above, with S88L, P174A, G330A counted along it
# Sequence of alpha 2 receptors (P63138 25-474 partner limits assumed): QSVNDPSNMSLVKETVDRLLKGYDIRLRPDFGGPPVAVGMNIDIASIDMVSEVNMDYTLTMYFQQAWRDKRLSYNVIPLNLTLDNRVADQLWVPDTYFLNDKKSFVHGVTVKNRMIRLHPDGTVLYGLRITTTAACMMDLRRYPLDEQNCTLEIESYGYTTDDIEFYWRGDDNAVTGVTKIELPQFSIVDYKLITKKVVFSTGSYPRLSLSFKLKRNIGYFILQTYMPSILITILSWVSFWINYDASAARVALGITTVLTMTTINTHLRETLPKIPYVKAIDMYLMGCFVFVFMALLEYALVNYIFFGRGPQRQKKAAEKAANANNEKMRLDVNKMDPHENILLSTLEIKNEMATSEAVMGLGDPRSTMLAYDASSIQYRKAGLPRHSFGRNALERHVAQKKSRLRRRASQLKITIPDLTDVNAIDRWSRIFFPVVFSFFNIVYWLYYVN
# Sequence of alpha 2 receptors (P18508 39-466): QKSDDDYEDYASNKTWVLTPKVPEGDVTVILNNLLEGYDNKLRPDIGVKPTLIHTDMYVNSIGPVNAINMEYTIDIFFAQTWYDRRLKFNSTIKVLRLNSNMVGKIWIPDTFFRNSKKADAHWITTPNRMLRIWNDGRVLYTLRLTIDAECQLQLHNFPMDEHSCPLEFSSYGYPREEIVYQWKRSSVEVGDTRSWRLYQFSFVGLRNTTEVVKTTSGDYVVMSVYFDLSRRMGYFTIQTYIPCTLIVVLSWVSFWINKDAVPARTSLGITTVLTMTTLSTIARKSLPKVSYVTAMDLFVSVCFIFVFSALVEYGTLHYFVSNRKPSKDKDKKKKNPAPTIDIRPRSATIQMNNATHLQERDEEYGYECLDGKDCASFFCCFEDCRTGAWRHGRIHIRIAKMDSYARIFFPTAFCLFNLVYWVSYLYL
# [9] = biological target: alpha 1 containing receptors (UniProt P14867+P18508); settings: cited from earlier work
# Sequence of alpha 1 containing receptors (P14867 28-456): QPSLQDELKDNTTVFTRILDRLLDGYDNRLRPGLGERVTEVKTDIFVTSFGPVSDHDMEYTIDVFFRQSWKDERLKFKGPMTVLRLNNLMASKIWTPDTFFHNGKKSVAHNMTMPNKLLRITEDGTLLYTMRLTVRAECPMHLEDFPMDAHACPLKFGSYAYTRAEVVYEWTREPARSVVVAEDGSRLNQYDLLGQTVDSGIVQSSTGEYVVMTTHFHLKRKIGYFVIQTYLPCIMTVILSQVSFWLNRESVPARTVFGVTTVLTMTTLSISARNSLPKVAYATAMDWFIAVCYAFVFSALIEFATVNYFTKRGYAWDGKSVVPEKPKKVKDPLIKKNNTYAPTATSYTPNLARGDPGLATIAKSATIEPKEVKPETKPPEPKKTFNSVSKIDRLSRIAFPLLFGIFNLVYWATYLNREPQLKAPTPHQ
# Sequence of alpha 1 containing receptors (P63138 25-474 partner limits assumed): as the sequence (P63138 25-474 partner limits assumed) above
# Sequence of alpha 1 containing receptors (P18508 39-466): as the sequence (P18508 39-466) above
# [10] = biological target: alpha 5 containing receptors (UniProt P18508+P31644); settings: cited from earlier work
# Sequence of alpha 5 containing receptors (P31644 32-462): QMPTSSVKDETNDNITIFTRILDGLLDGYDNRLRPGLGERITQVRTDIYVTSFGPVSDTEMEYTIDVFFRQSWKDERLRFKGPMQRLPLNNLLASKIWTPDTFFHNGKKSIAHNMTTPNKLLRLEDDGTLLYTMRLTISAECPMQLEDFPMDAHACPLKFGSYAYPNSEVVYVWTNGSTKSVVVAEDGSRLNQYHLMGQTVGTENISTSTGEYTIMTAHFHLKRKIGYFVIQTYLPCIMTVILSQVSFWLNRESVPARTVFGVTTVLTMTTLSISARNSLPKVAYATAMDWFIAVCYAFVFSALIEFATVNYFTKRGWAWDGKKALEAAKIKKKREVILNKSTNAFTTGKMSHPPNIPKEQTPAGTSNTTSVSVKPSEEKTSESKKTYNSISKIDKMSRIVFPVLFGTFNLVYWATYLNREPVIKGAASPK
# Sequence of alpha 5 containing receptors (P63079 26-473 partner): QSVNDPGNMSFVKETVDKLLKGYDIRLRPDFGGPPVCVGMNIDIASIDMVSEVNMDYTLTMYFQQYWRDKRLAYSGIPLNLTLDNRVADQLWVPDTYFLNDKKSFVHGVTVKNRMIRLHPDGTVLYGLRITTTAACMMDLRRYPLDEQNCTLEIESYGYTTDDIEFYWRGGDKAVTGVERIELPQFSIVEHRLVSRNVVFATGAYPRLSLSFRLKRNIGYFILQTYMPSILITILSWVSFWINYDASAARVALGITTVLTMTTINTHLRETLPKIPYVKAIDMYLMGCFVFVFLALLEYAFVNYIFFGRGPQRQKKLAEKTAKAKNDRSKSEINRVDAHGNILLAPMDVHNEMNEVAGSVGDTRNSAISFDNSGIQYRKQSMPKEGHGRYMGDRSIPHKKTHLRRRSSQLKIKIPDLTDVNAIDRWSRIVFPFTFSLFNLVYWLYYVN
# Sequence of alpha 5 containing receptors (P18508 39-466): as the sequence (P18508 39-466) above
# male Wistar rats = assay: Rat forced swim test; type: in vivo; settings: 10 and 30 mg/kg p.o., 23, 5 and 1 h prior to testing
# Description: All animals were treated with verum or vehicle three times: shortly after the habituation session (23 h), 5 and 1 h prior to testing. All drugs were administered orally with an application volume of 1 ml/kg.
# The animals were tested in a glass tank (23×30 cm, height 40 cm) filled to a depth of 28 cm with water at 22° C. (the animals could not touch the bottom). The glass tank was illuminated indirectly and was surrounded by dark brown shading walls (distance from the tank 20 cm) to prevent the view on the experimenter. The experiments were performed between 14:00 and 17:00 hours and the method was in general performed as described (Porsolt et al., 1979; Lucki, 1997).
# On the first experimental day, rats were gently placed in the water for a 15 min period of habituation. On removal from the water, they were placed in a standard plexiglass box, the floor covered with paper towels, under an infrared heater for 30 min to dry. The next day, they were once more placed gently in the glass tank and observed for 5 min. The behaviour of the animals was video-taped.
# Following the experiment the video tapes were analysed manually and the duration of the following behaviours was recorded: Immobility: floating and making only those movements necessary to keep the nose above the water. […] Climbing: when rats strongly move their forepaws in and out of the water, usually against the walls.
# [11] = haloperidol 0.5 mg/kg i.p. + flumazenil 5 mg/kg i.p.
# [12] = haloperidol 0.5 mg/kg i.p., MK-801 0.1 mg/kg i.p.
smiles,measurement,setting,value
NC(=O)N1c2ccccc2C=Cc2ccccc21 [Carbamazepine],effect on 5-HT release / extracellular 5-HT in the brain,[1],increase
"CN1C(=O)CN=C(c2ccccc2)c2cc(Cl)ccc21 [Diazepam, reference compound]",concentration at which positive current modulations were first measurable,[2]; α2 containing receptors,below 0.1 μM
same,"maximal agonism, potentiation of GABA-induced current","[2]; α2β2γ2, at 1 μM diazepam",1.8 fold
same,Potentiation* (Diazepam),"[2]; α2β2γ2, with GABA EC20, graphically determined",1.8 ± 0.6
same,maximal positive modulation of GABA-induced current,"[3]; α1-containing receptors, maximum at 30 μM (ELB139), at 1 μM (diazepam)",2.2±0.9 fold
same,Potentiation* (Diazepam),"[3]; α1β2γ2, with GABA EC20, graphically determined",2.2 ± 0.9
same,concentrations at which positive current modulation was observable,[4]; α3-containing receptors,below 10 nM
same,Potentiation* (Diazepam),"[4]; α3β2γ2, with GABA EC20, graphically determined",1.8 ± 0.11
same,modulation of GABA-induced currents (in words),[5],no significant modulation
same,concentration at which the current was potentiated,[6],10 nM
same,maximal positive modulation of GABA-induced current,"[6]; maximum at 30 μM (ELB139), at 1 μM (diazepam)",2±0.05 fold
same,Potentiation* (Diazepam),"[6]; with GABA EC20, graphically determined",2 ± 0.05
"O=C(CCCN1CCC(O)(c2ccc(Cl)cc2)CC1)c1ccc(F)cc1 [Haloperidol, 4-(4-[4-chlorophenyl]-4-hydroxy-1-piperidinyl)-1-(4-fluorophenyl)-1-nutanone, reference compound]","MK-801-induced ataxia, combination with flumazenil",[7]; [11],significantly reversed
same,"effects on activity, distance, sniffing and other stereotypies when flumazenil is added",[7]; [11],not affected
same,MK-801-induced ataxia,"[7]; haloperidol 0.5 mg/kg i.p. alone, MK-801 0.1 mg/kg i.p.",only marginally reduced
same,MK-801-increased activity,[7]; [12],significantly reversed
same,MK-801-increased distance travelled,[7]; [12],significantly reversed
same,MK-801-induced other stereotypies,[7]; [12],slightly reduced
same,MK-801-induced sniffing (stereotypies),[7]; [12],significantly reversed
same,all symptoms induced by MK-801,[8],significantly reduced all symptoms
Cn1c2ccc(F)cc2c2c(C(=O)N3CCCC3)cn(-c3ccccc3)c(=O)c21 [SL651498],activity,alpha 3 receptors,70%
same,partial agonistic activity,alpha 2 receptors,100%
same,partial agonistic activity,[9],40-50%
same,partial agonistic activity,[10],40-50%
CCCC(CCC)C(=O)O [Valproate],effect on 5-HT release / extracellular 5-HT in the brain,[1],enhances
"CNCCC(Oc1ccc(C(F)(F)F)cc1)c1ccccc1 (stereo not drawn) [fluoxetine, N-methyl-γ-[4-(trifluoromethyl)phenoxy] benzenepropanamine, reference compound]",climbing behaviour,male Wistar rats,not changed
same,swimming time,male Wistar rats,increased
same,time spent immobile,male Wistar rats,reduced
NCC1(CC(=O)O)CCCCC1 [gabapentin],effect on 5-HT release / extracellular 5-HT in the brain,[1],decrease
O=C1NC(=O)C(c2ccccc2)(c2ccccc2)N1 [phenytoin],effect on 5-HT release / extracellular 5-HT in the brain,[1],decrease
